In US6664283B1, “Pharmaceuticals for neurogenic pain” (Yamanouchi Pharmaceutical Co., Ltd., priority 1999, dated 2003):
Read-outs that look alike come from different tables or passages of the source.

How the values were obtained:
[1] = tested on: nerve ligation-induced neuropathic pain animal models; conditions: cited from earlier work; for cold hyperalgesia / development of mechanical allodynia: intrathecal twice-daily on post-operative days 0-8
[2] = tested on: spinal L5/L6 nerve-ligated rats; assay: von Frey hair (VFH) test in spinal L5/L6 nerve-ligated rats; type: in vivo, SD rats; conditions: 30 or 100 mg/kg po; 45 minutes after administration; 7 days after operation
Procedure: The test was carried out by modifying a previously reported method (Pain, 50, 355-363, 1992). SD rats were used. The left side lumbar nerves (L5 and L6) of each animal were ligated with silk threads under pentobarbital anesthesia. The following test was carried out 7 days after the operation.
After 45 minutes of oral administration of drug, von Frey hair (VFH) test was carried out to measure a mechanical pain threshold. The measurement was carried out on both hindpaws.
Although there was little difference in the mechanical pain thresholds between the left and right hindpaw in sham-operated rats in which the threshold was 17 to 20 g (log(g): 1.23-1.30), the obvious reduction of the mechanical pain threshold in the operated side hinpaw was found in spinal L5/L6 nerve-ligated rats.
Statistical analysis was performed with Dunnet test and carried out on each side hindpaw between the control group and drug-administered groups (** and *** in the table are as follows; **p<0.01, ***p<0.001 vs. control group).

[3] = tested on: STZ-induced diabetes mice; assay: tail pinch test in STZ-induced diabetes mice model; type: in vivo, ICR mice; conditions: 45 minutes after administration, STZ mice day 15
Procedure: The test was carried out by modifying a previously reported method (Pharmacol. Biochem. Behav., 39, 541-544, 1991). STZ at a dose of 200 mg/kg was intraperitoneally administered to 4-weeks-old ICR mice. A pre-drug tail pinch test was carried out in the afternoon at the fourteenth day after the STZ-administration, and animals showing a reaction latency of 3 seconds or less were subjected to the next day's test. At the fifteenth day after the STZ-administration, each drug was administered orally and a post-drug tail pinch test was carried out 45 minutes after the drug administration. […] Statistical analysis was performed with Steel test between the control group and drug-administered group (* and ** in the table are as follows; *p<0.05, **p<0.01 vs. control group).

mGluR2 = target: T1, mGluR2 (Rattus norvegicus, UniProt P31421); assay: intracellular cAMP after forskolin stimulation in mGluR2-expressing CHO cells; type: cell-based; conditions: up to 100 μM; cAMP formation
T1 construct: expressed in transfected cells; host or cells: CHO
Procedure: (§1) The NIH3T3 cell lines expressing individually mGluR1 α and mGluR5a were cultured using DMEM containing 10% dialyzed fetal calf serum and 100 units/ml, 0.1 mg/ml of streptomycin sulfate. The CHO cell lines expressing individually mGluR2, R4, R6 and R7 were cultured using DMEM containing 10% dialyzed fetal calf serum, 100 units/ml, 0.1 mg/ml of streptomycin sulfate and 2 mM glutamine. Using cell lines expressing individually mGluR2, R6 and R7, cAMP formation after forskolin stimulation in the presence of IBMX was measured using a cAMP assay kit as described previously (Neuron, 8, 169-179, 1992).

mGluR6 = target: T2, mGluR6 (Rattus norvegicus, UniProt P35349); assay: intracellular cAMP after forskolin stimulation in mGluR6-expressing CHO cells; type: cell-based; conditions: up to 100 μM; cAMP formation
T2 construct: expressed in transfected cells; host or cells: CHO
Procedure: as §1

mGluR5a = target: T3, mGluR5a (Rattus norvegicus, UniProt P31424); assay: intracellular calcium concentration in mGluR5a-expressed NIH3T3 cells; type: cell-based; conditions: up to 10 μM
T3 construct: expressed in transfected cells; host or cells: NIH3T3
Procedure: The NIH3T3 cell lines expressing individually mGluR1 α and mGluR5a were cultured using DMEM containing 10% dialyzed fetal calf serum and 100 units/ml, 0.1 mg/ml of streptomycin sulfate. The CHO cell lines expressing individually mGluR2, R4, R6 and R7 were cultured using DMEM containing 10% dialyzed fetal calf serum, 100 units/ml, 0.1 mg/ml of streptomycin sulfate and 2 mM glutamine. Intracellular calcium concentration of the mGluR5a-expressed cells was measured using a spectrofluorometer as described previously (Nature, 383, 89-92, 1996).

mGluR1 = target: T4, mGluR1 (Rattus norvegicus, UniProt P23385); assay: PI hydrolysis assay in cerebellar granule cells (mGluR1 antagonistic activity); type: cell-based
T4 construct: endogenous in cells; host or cells: primary cerebellar granule cells from Wistar rats aged 7 to 8 days
Procedure: 1. Measurement of mGluR1 Antagonistic Activity Using Cerebellar Granule Cells The whole brain was removed from each of seven Wistar rats of 7 to 8 days of age after birth (Japan S L C), and then the cerebellum was isolated in an L-15 medium (Gibco) under a stereoscopic microscope. The isolated cerebellum was cut into pieces using a surgical knife and incubated at 37° C. for 15 minutes in 0.25% trypsin solution (Gibco) containing 750 U/ml of DNase I (Sigma). After termination of the enzyme reaction by adding fetal calf serum (JRH Biosciences), the tissue pieces were centrifuged and the supernatant was removed by sucking. After adding 10 ml of a high potassium medium, cells were dissociated by 5 to 6 times passage through a plastic pipette. After filtering the cell dispersion through a nylon mesh (40 μm pore), viable cells were counted. The cells were diluted in the high potassium medium and then seeded at a density of 8×10^5 cells/well onto 24-well culture plates (Sumitomo Bakelite) precoated with poly-L-lysine. […] High potassium medium: BME (Gibco)+10% immobilized fetal calf serum+25 mM KCl+1% penicillin/streptomycin (Gibco) The PI hydrolysis was measured as described by Aramori et al(Neuron, 8, 757-765, 1992). […] The eluate was mixed with a liquid scintillator (Aquasol-2) and the radioactivity in the eluate was determined by a liquid scintillation spectrometer.

mGluR7 = target: T5, mGluR7 (Rattus norvegicus, UniProt P35400); assay: intracellular cAMP after forskolin stimulation in mGluR7-expressing CHO cells; type: cell-based; conditions: up to 100 μM; cAMP formation
T5 construct: expressed in transfected cells; host or cells: CHO
Procedure: as §1

mGluR1 α = target: T6, mGluR1 α (Rattus norvegicus, UniProt P23385); assay: PI hydrolysis assay in mGluR1 α-expressed NIH3T3 cells; type: cell-based; conditions: 100 μM glutamate, read-out: IC50 value, inhibition of PI formation induced by 100 μM glutamate
T6 construct: expressed in transfected cells; host or cells: NIH3T3
Procedure: Measurement of inhibition activity by mGluR1 α expression cell The NIH3T3 cell lines expressing individually mGluR1 α and mGluR5a were cultured using DMEM containing 10% dialyzed fetal calf serum and 100 units/ml, 0.1 mg/ml of streptomycin sulfate. The CHO cell lines expressing individually mGluR2, R4, R6 and R7 were cultured using DMEM containing 10% dialyzed fetal calf serum, 100 units/ml, 0.1 mg/ml of streptomycin sulfate and 2 mM glutamine. Using the mGluR1 α-expressed cells labeled with ^3H-inositol, hydrolysis of phosphatidylinositol was measured as described previously(Nature, 383, 89-92, 1996).

T4 sequence (P23385 19-1199): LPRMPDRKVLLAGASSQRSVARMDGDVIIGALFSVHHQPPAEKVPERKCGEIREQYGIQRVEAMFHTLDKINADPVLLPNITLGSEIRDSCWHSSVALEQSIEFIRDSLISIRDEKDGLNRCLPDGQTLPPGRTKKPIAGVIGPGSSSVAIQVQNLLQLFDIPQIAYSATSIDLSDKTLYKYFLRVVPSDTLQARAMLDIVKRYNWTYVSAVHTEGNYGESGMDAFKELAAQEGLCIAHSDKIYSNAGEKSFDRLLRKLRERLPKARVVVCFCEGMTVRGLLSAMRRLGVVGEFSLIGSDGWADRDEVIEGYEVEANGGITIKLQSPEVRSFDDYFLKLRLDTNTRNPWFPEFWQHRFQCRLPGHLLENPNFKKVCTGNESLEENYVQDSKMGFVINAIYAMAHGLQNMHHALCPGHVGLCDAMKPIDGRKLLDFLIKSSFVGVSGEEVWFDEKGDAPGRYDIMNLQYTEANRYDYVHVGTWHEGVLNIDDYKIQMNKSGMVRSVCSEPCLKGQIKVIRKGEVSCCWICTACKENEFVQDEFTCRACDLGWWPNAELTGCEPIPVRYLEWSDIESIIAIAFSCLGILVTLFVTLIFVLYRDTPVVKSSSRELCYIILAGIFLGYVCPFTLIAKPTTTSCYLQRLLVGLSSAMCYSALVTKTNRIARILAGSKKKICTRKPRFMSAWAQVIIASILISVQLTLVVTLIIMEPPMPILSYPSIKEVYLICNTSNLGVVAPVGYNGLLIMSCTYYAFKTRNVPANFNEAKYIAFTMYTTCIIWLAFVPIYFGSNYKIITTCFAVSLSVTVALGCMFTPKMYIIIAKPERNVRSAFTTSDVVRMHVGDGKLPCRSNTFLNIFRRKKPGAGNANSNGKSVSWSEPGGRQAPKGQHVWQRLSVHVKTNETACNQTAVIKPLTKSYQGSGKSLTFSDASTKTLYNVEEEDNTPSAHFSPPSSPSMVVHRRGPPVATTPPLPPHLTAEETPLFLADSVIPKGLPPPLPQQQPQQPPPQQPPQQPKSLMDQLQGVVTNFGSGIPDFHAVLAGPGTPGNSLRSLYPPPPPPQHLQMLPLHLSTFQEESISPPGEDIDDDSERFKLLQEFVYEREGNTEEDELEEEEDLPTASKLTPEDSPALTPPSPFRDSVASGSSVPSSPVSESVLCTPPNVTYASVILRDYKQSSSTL
T6 sequence (P23385 19-1199): as above
T2 sequence (P35349 24-871): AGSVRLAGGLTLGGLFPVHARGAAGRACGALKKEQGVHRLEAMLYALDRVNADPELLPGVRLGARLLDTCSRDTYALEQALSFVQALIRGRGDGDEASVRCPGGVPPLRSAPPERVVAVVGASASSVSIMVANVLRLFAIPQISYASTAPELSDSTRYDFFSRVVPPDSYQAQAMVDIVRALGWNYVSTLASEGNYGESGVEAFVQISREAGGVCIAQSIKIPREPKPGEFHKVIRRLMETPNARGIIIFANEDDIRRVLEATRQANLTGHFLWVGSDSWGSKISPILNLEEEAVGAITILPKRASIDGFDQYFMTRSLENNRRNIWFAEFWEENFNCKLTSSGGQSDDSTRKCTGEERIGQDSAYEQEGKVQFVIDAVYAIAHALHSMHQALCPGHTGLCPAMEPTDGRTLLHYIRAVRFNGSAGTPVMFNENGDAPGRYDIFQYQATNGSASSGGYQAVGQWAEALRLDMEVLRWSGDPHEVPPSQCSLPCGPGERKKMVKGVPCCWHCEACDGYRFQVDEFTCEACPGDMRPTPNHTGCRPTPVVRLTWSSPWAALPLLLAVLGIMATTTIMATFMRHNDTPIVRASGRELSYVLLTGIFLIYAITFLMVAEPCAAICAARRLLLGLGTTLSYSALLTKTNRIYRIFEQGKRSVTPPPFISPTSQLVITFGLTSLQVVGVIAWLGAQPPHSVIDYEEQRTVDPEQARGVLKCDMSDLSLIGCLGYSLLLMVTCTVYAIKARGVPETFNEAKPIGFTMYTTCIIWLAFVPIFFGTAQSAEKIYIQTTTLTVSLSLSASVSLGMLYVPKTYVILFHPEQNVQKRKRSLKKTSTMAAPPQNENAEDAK
T5 sequence (P35400 35-915): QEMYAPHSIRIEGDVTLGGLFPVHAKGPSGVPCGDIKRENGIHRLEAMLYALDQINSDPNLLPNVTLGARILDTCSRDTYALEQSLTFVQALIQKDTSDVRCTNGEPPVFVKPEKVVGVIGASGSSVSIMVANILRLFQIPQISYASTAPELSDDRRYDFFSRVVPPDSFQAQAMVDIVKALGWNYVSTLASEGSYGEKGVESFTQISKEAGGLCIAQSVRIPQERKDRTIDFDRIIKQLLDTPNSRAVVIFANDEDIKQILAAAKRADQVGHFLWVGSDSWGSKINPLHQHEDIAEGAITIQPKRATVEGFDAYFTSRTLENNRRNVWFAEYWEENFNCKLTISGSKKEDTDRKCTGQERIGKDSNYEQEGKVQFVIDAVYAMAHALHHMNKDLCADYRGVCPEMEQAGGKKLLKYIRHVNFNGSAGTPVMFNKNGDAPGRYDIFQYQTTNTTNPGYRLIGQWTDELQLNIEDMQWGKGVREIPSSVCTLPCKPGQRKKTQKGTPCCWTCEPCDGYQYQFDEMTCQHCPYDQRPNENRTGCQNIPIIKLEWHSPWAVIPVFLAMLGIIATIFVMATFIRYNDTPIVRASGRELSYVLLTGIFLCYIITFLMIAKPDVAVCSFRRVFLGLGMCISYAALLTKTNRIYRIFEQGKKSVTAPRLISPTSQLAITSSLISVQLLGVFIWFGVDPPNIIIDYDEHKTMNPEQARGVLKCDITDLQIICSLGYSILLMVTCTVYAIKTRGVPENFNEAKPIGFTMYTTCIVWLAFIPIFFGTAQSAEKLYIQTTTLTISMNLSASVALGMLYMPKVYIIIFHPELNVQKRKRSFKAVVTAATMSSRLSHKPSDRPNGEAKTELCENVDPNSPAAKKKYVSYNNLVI
T3 sequence (P31424 21-1171 isoform P31424-2 limits assumed): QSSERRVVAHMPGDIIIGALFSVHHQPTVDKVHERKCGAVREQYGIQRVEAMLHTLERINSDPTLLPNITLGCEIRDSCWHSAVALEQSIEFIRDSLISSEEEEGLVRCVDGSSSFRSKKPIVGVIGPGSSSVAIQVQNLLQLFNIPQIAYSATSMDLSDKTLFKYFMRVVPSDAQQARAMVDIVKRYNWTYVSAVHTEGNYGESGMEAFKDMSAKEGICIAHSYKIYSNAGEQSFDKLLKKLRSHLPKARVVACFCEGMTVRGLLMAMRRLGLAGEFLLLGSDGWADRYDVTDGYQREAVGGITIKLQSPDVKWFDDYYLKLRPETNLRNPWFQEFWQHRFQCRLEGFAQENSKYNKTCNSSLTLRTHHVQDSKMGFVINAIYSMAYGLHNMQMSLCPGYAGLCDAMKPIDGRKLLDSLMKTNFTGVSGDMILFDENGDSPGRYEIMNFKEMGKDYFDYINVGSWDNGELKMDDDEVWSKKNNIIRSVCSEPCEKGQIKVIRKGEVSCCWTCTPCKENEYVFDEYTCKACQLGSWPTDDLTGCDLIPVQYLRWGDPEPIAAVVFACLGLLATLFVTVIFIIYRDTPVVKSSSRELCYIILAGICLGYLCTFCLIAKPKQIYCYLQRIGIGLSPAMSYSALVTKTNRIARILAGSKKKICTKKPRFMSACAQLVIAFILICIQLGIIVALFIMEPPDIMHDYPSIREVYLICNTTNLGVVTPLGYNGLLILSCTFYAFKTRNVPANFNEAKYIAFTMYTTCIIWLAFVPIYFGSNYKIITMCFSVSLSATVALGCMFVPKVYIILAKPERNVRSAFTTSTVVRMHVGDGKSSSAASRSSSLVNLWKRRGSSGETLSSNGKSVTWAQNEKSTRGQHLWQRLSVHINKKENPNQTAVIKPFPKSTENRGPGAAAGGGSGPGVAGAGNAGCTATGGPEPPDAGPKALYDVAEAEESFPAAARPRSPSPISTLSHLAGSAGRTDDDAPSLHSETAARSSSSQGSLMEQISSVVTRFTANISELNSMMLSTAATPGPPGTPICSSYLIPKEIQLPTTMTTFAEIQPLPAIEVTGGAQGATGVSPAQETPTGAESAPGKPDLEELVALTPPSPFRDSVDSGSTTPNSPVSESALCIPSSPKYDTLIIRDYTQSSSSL
T1 sequence (P31421 19-872): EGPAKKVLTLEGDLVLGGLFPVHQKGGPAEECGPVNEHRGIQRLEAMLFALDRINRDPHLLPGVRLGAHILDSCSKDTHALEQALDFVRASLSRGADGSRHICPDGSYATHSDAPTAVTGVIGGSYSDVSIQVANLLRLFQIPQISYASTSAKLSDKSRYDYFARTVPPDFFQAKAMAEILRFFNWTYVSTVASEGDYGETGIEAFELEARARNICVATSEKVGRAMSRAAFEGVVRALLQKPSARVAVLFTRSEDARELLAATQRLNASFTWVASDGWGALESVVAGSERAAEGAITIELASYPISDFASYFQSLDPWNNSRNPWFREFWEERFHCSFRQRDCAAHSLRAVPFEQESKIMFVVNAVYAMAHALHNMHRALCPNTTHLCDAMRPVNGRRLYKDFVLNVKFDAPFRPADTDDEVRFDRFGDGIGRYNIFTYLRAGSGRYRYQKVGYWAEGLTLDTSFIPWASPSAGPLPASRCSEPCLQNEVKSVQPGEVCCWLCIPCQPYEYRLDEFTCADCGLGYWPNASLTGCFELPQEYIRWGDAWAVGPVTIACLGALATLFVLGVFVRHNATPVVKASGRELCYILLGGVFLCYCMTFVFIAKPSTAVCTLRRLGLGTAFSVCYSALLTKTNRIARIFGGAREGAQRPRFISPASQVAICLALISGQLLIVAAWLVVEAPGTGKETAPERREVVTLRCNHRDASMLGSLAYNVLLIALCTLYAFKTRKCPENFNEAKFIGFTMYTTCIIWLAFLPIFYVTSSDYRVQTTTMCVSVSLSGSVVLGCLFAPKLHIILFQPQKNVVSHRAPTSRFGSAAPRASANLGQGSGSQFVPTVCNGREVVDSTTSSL

SMILES | cold hyperalgesia ([1]; assessed on days 4 and 8) | development of mechanical allodynia ([1]; assessed on days 4 and 8) | cold hyperalgesia ([1]; assessed on days 12 and 16) | development of mechanical allodynia ([1]; assessed on days 12 and 16) | development of lowered pain threshold ([1]; intrathecal twice-daily on post-operative days 8-11, any day of the test) | mechanical pain threshold in the operated side hindpaw (VFH test) [2] | reaction latency in tail pinch test ([3]; 30 mg/kg po) | agonist or antagonist activity for mGluR2 (mGluR2) | agonist or antagonist activity for mGluR6 (mGluR6) | agonist or antagonist activity for mGluR5 (mGluR5a) | IC50 (mGluR1) [nM] | agonist or antagonist activity for mGluR7 (mGluR7) | reaction latency in tail pinch test ([3]; 10 mg/kg po) | IC50 (mGluR1 α) [nM]
N[C@H](C(=O)O)c1ccc(C(=O)O)cc1 [(S)-4CPG, (S)-4-carboxyphenylglycine] | attenuated cold hyperalgesia | inhibited a development of mechanical allodynia | did not have an effect | did not have an effect | did not inhibit development of lowered pain threshold | – | – | – | – | – | – | – | – | –
Cc1c(C(=O)N(C)C2CCCCC2)sc2nc3ccc(N)cc3n12.Cl.Cl [compound A, 6-amino-N-cyclohexyl-N, 3-dimethylthiazolo[3,2-a]benzoimidazole-2-carboxamide dihydrochloride] | – | – | – | – | – | improved lowered mechanical pain thresholds | significantly prolonged the reaction latency | did not show any agonist or antagonist activity | did not show any agonist or antagonist activity | did not show any agonist or antagonist activity | 22 | did not show any agonist or antagonist activity | – | –
C[C@H]1CCCC[C@H]1N(C)C(=O)c1cn2c(nc3ccc(N)cc32)s1.Cl.Cl [compound B, (+)-(1R,2S)-6-amino-N-methyl-N-(2-methylcyclohexyl)thiazolo [3,2-a]benzoimidazole-2-carboxamide dihydrochloride] | – | – | – | – | – | – | – | – | – | – | 2 | – | significantly prolonged the latency | 1.7
